Earlier results in article PMC6492937.

Assay: not told

Compound | log partition octanol / water [log10]
CCCCCCCCN1CCCCC1=O | 3.41
CCCCCCCCCCCCN1CCCCCC1=O | 6.28
CCCCN1CCCC1=O | 1.02
CCCCCC(=O)N(C)C | 1.36
CCCCCCCCN1CCCC1=O | 3.05
CCCCCCCCC(=O)N(C)C | 3.00
CCCCN1CCCCCC1=O | 1.80
CCCCCCCCN1CCCCCC1=O | 4.04
CCCCCCN1CCCCC1=O | 2.3
CCCCCCCCCC(=O)N1CC(O)CC1C(=O)NCC (stereo not drawn) | 2.86
CCCCCCN1CCCC1=O | 2.1
CCCCCCCC(=O)N(C)C | 2.59
CCCCCCN1CCCCCC1=O | 2.91
CCCCCCC(=O)N(C)C | 1.89
CCCCN1CCCCC1=O | 1.39
